# Test results reported in PubChem BioAssay AID1963870 (Molecular Pharmacology Branch, DTP, NCI, 2024).
# System: 292921-168-R-J2-PDC KRAS tumor spheroid viability
# Test: Anticancer human tumor 292921-168-R-J2-PDC patient-derived pancreatic carcinoma cell line growth inhibition [KRAS2]
# Details: spheroids with HUVEC and MSC; for viability, T/C: stronger effect = lower value
# How it was run: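 KRAS-mutant tumor cells were grown as spheroids with HUVEC endothelial cells and human MSCs as stroma. Targeted agents were tested alone and with KRAS pathway inhibitors. Doses started at or near clinical Cmax, or 10 microM, descending half-log.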
# [1] = curve of first compound, second compound 0.1 µM
# [2] = curve of first compound, second compound 0.316 µM
# [3] = curve of first compound, second compound 1 µM
# [4] = curve of first compound, second compound 3.16 µM
# [5] = curve of first compound, second compound 10 µM
# [6] = second compound 0.1 µM, first compound 0.0316 µM
# [7] = second compound 0.1 µM, first compound 0.1 µM
# [8] = second compound 0.316 µM, first compound 0.0316 µM
# [9] = second compound 0.316 µM, first compound 0.1 µM
# [10] = second compound 1 µM, first compound 0.0316 µM
# [11] = second compound 1 µM, first compound 0.1 µM
# [12] = second compound 3.16 µM, first compound 0.0316 µM
# [13] = second compound 3.16 µM, first compound 0.1 µM
# [14] = second compound 10 µM, first compound 0.0316 µM
# [15] = second compound 10 µM, first compound 0.1 µM
# 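Further: drug exposure lasted seven days after spheroids formed for three days.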
# 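Wherever viability, T/C is given: percent of DMSO vehicle control viability which is 100%.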
structure (smiles),measurement,setting,value
CC(C)NCC(C(=O)N1CCN(c2ncnc3c2C(C)CC3O)CC1)c1ccc(Cl)cc1 (configuration not stated) + COc1cc2nc(C)nc(NC(C)c3cc(N)cc(C(F)(F)F)c3)c2cc1OC1CCOC1,IC50,[1],8850 nM
same,IC50,[2],8100 nM
same,IC50,[3],5010 nM
same,IC50,[4],1250 nM
same,IC50,[5],< 31.6 nM
same,"viability, T/C",[6],87.5%
same,"viability, T/C",[7],84.8%
same,"viability, T/C","second compound 0.1 µM, first compound 0.316 µM",78.8%
same,"viability, T/C","second compound 0.1 µM, first compound 1 µM",77.8%
same,"viability, T/C","second compound 0.1 µM, first compound 3.16 µM",77.4%
same,"viability, T/C","second compound 0.1 µM, first compound 10 µM",46.3%
same,"viability, T/C",[8],82.7%
same,"viability, T/C",[9],82%
same,"viability, T/C","second compound 0.316 µM, first compound 0.316 µM",80.5%
same,"viability, T/C","second compound 0.316 µM, first compound 1 µM",75.3%
same,"viability, T/C","second compound 0.316 µM, first compound 3.16 µM",74.4%
same,"viability, T/C","second compound 0.316 µM, first compound 10 µM",44.7%
same,"viability, T/C",[10],83.2%
same,"viability, T/C",[11],71.1%
same,"viability, T/C","second compound 1 µM, first compound 0.316 µM",63.8%
same,"viability, T/C","second compound 1 µM, first compound 1 µM",63.2%
same,"viability, T/C","second compound 1 µM, first compound 3.16 µM",60.9%
same,"viability, T/C","second compound 1 µM, first compound 10 µM",40.2%
same,"viability, T/C",[12],58.1%
same,"viability, T/C",[13],51.1%
same,"viability, T/C","second compound 3.16 µM, first compound 0.316 µM",50.2%
same,"viability, T/C","second compound 3.16 µM, first compound 1 µM",50.4%
same,"viability, T/C","second compound 3.16 µM, first compound 3.16 µM",46.9%
same,"viability, T/C","second compound 3.16 µM, first compound 10 µM",30.6%
same,"viability, T/C",[14],20.3%
same,"viability, T/C",[15],19.7%
same,"viability, T/C","second compound 10 µM, first compound 0.316 µM",18.6%
same,"viability, T/C","second compound 10 µM, first compound 1 µM",18%
same,"viability, T/C","second compound 10 µM, first compound 3.16 µM",15.4%
same,"viability, T/C","second compound 10 µM, first compound 10 µM",9.75%
COc1cc(OC)cc(N(CCNC(C)C)c2ccc3ncc(-c4cnn(C)c4)nc3c2)c1,"viability, T/C",compound 0.0316 µM,72.9% [middle of 5 runs]
same,"viability, T/C",compound 0.1 µM,77.1% [middle of 5 runs]
same,"viability, T/C",compound 0.316 µM,77.7% [middle of 5 runs]
same,"viability, T/C",compound 1 µM,69.4% [middle of 5 runs]
same,"viability, T/C",compound 3.16 µM,45.9% [middle of 5 runs]
same,"viability, T/C",compound 10 µM,0.9% [middle of 5 runs]
same,IC50,curve of compound,2.48 µM [middle of 5 runs]
CN(C)C/C=C/C(=O)Nc1cc2c(Nc3ccc(F)c(Cl)c3)ncnc2cc1O[C@H]1CCOC1 + CC1OCC2(CCN(c3cnc(Sc4ccnc(N)c4Cl)c(N)n3)CC2)C1N,IC50,[1],> 100 nM
same,IC50,[2],0.889 nM
same,IC50,[3],> 100 nM
same,IC50,[4],< 0.316 nM
same,IC50,[5],> 100 nM
same,"viability, T/C","second compound 0.1 µM, first compound 0.000316 µM",82.2%
same,"viability, T/C","second compound 0.1 µM, first compound 0.001 µM",73.3%
same,"viability, T/C","second compound 0.1 µM, first compound 0.00316 µM",60.9%
same,"viability, T/C","second compound 0.1 µM, first compound 0.01 µM",64.3%
same,"viability, T/C",[6],57.5%
same,"viability, T/C",[7],57.4%
same,"viability, T/C","second compound 0.316 µM, first compound 0.000316 µM",53.5%
same,"viability, T/C","second compound 0.316 µM, first compound 0.001 µM",48.3%
same,"viability, T/C","second compound 0.316 µM, first compound 0.00316 µM",46.9%
same,"viability, T/C","second compound 0.316 µM, first compound 0.01 µM",45.9%
same,"viability, T/C",[8],52.3%
same,"viability, T/C",[9],46.1%
same,"viability, T/C","second compound 1 µM, first compound 0.000316 µM",92%
same,"viability, T/C","second compound 1 µM, first compound 0.001 µM",78%
same,"viability, T/C","second compound 1 µM, first compound 0.00316 µM",94%
same,"viability, T/C","second compound 1 µM, first compound 0.01 µM",88.6%
same,"viability, T/C",[10],93%
same,"viability, T/C",[11],79.8%
same,"viability, T/C","second compound 3.16 µM, first compound 0.000316 µM",23.2%
same,"viability, T/C","second compound 3.16 µM, first compound 0.001 µM",25.3%
same,"viability, T/C","second compound 3.16 µM, first compound 0.00316 µM",28.8%
same,"viability, T/C","second compound 3.16 µM, first compound 0.01 µM",29.8%
same,"viability, T/C",[12],31.2%
same,"viability, T/C",[13],33.2%
same,"viability, T/C","second compound 10 µM, first compound 0.000316 µM",50.8%
same,"viability, T/C","second compound 10 µM, first compound 0.001 µM",75.5%
same,"viability, T/C","second compound 10 µM, first compound 0.00316 µM",82.6%
same,"viability, T/C","second compound 10 µM, first compound 0.01 µM",88.3%
same,"viability, T/C",[14],91.5%
same,"viability, T/C",[15],85.5%
